Test results as given in article PMC11822723 (ACS Omega, 2025).
Converted amounts (≈) assume the structure as drawn. Read-outs that look alike come from different tables or passages of the source.

Assays:
[1] = Aqueous solubility measurements (stepwise solvent addition, stereo microscope); type: physicochemical; conditions: for solubility: thermodynamic from solid, read-out: solubility, conc.
Excerpt: Thus, the impact of the pH value on the solubilities of the Ox-Ibu-PIP-X-Mal complexes was investigated. Commercially available 0.9% NaCl has a pH of roughly 5, but when acidified to pH 3, the solubilities of both Ox-Ibu-PIP-X-Mal complexes increased by a factor of 1.5. […] Expectedly, using phosphate buffer or phosphate-buffered saline (PBS) at pH 7.4 further decreased the solubility.
5% glucose and 0.9% NaCl solutions were purchased from B. Braun. 0.9% NaCl solutions were acidified to pH 3.0 using 1 M HCl and basified to pH 7.0 using 1 M NaOH. Aqueous buffers (citrate, PB, PBS) were prepared in 100 mM concentrations. One mg of compound was weighted using a Sartorius ME215P analytical balance and the solubility was investigated according to the following stepwise interval: +1 μL in the volume range 0–10 μL; +10 μL in the volume range 10–100 μL; +100 μL in the volume range 100–1000 μL; +1000 μL in the volume range 1000–5000 μL. Dissolution of the sample was investigated using a Leica M80 routine stereo microscope (50× magnification) until no solid particles were observed.

[2] = Hydrolytic stability of the maleimide in phosphate buffer, UHPLC; type: physicochemical; conditions: 1 mM, 150 mM phosphate buffer pH 7.4, 20 °C
Experimental: It is known from literature that most maleimides are prone to hydrolysis at physiological pH.[38] Consequently, the hydrolytic stabilities of the three oxaliplatin(IV)-acetato complexes bearing the piperazine maleimides were studied in comparison to the reference complex Ox-OAc-PEG4-Mal. The hydrolysis of the platinum(IV)-acetato complexes was investigated in phosphate buffer at pH 7.4 and 20 °C over 5 h and the amount of remaining intact parental complex was monitored with ultrahigh-performance liquid chromatography (UHPLC) (Figure 1). Ox-OAc-PIP-C2-Mal hydrolyzed rapidly, with only traces of intact platinum(IV)-maleimide remaining after 1 h incubation time. […] These dramatic differences are in line with some model maleimide compounds reported in literature, also containing piperazine moieties.[38] The strong inductive effects of the protonated quaternary nitrogen of the piperazine can explain the extremely fast hydrolysis of Ox-OAc-PIP-C2-Mal.
Phosphate buffer (150 mM, pH 7.4) containing 1 mM platinum compound was incubated at 20 °C. The reaction was monitored on a Thermo Scientific Dionex UltiMate 3000 UHPLC-system using a Waters Acquity UPLC BEH C18 1.7 μm 3.0 mm × 50 mm column. Milli-Q water, containing 0.1% formic acid, and acetonitrile containing 0.1% formic acid were used as eluents. A gradient of 5–95% over 5 min was used. […]

albumin = target: T1, albumin (Bos taurus, UniProt P02769); experiment: Albumin binding in phosphate-buffered fetal calf serum, 195Pt traces by SEC-ICP-MS; type: in vitro ADME; conditions: for bound to albumin after 1 h of incubation / bound to albumin at time point 0: 100 μM in FCS (150 mM phosphate buffer, pH 7.4), 37 °C
T1 construct: Serum proteins (including albumin) have a retention time of 2–4 min, with the albumin fraction eluting at 4.0 min; tissue Sigma-Aldrich; host or cells: fetal calf serum (whole serum, buffered with 150 mM phosphate pH 7.4)
Experimental: Subsequently, it was of interest how the observed divergent maleimide hydrolysis rates impact the albumin binding kinetics. Therefore, the different platinum(IV) complexes were incubated in phosphate-buffered fetal calf serum (FCS) at 37 °C over 25 h and ^195Pt traces were measured via size-exclusion chromatographyinductively coupled plasma mass spectrometry (SEC-ICP-MS). Serum proteins (including albumin) have a retention time of 2–4 min, with the albumin fraction eluting at 4.0 min (Figure S1) as part of the high-molecular weight fraction (HMWF) and unbound platinum(IV) complexes elute in the low-molecular weight fraction (LMWF) with retention times usually >5 min. Already at time point 0, ∼60% of Ox-OAc-PEG4-Mal (tR = 6.4 min) was bound to albumin at 4.0 min in the HMWF, which increased to ∼90% after 1 h of incubation (Figure 2A). The remaining 10% of the parental complex (at tR > 5 min) most likely either contained a hydrolyzed maleimide moiety, unable to bind albumin, or were conjugated to low-molecular weight sulfur-containing compounds. The formed platinum(IV)-albumin conjugate remained stable for more than 25 h. […] In the LMWF, only a small peak of still intact Ox-OAc-PIP-C2-Mal (tR 6.5 min) could be observed, while a major signal (∼35%) of most likely already hydrolyzed maleimide compound appeared at tR 5.8 min. This is in very good agreement with the very fast hydrolysis of the maleimide moiety shown above (see Figure 1).
FCS was purchased from Sigma-Aldrich and buffered with 150 mM phosphate pH 7.4 in order to guarantee a stable pH. The platinum(IV) complexes (5 mM) were dissolved in 150 mM phosphate buffer (pH 7.4) and diluted […] in the buffered serum to obtain a final concentration of 100 μM. The samples were incubated in the autosampler at 37 °C and analyzed at 0, 1, 4, 24, and 25 h time points. Between each sample a pure water blank was measured. For SEC-ICP-MS measurements an Agilent 1260 Infinity system coupled to an Agilent 7800 ICP-MS equipped with a dynamic reaction cell was used. Oxygen (purity 5.5, Messer Austria GmbH, Gumpoldskirchen, Austria) was used as reaction gas.

[3] = 0.9% NaCl solution, pH 5, saline or isotonic, 0.9% NaCl
[4] = 5% glucose solution, saline or isotonic, 5% glucose

T1 sequence (P02769 25-607): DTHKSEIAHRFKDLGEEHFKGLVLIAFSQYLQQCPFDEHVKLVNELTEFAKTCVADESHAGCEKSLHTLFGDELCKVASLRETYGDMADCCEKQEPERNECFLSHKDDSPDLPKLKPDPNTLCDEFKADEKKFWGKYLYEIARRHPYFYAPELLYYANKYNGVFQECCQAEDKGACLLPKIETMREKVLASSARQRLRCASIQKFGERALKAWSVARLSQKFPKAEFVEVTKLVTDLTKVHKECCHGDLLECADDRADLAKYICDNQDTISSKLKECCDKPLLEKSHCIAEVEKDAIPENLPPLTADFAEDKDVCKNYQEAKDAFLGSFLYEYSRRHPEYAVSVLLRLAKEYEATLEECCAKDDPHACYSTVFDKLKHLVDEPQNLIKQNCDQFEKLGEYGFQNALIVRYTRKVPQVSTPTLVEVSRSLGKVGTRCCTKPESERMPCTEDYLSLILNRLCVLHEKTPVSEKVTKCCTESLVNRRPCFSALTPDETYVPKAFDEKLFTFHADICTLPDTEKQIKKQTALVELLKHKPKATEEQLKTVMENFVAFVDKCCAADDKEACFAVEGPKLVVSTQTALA

SMILES	solubility [1, 3] [mM]	solubility [1, 4] [mM]	bound to albumin after 1 h of incubation (albumin) [%]	bound to albumin at time point 0 (albumin) [%]	further results
CC(C)[C@H](NC(=O)CCC(=O)NCCN1CCN(CCOCCN2C(=O)C=CC2=O)CC1)C(=O)N[C@@H](CCCNC(N)=O)C(=O)Nc1ccc(CO)cc1 [Mal-O-PIP-Succ-ValCitPAB-OH, N1-(2-(4-(2-(2-(2,5-Dioxo-2,5-dihydro-1H-pyrrol-1-yl)ethoxy)ethyl)piperazin-1-yl)ethyl)-N4-((S)-1-(((S)-1-((4-(hydroxymethyl)phenyl)amino)-1-oxo-5-ureidopentan-2-yl)amino)-3-methyl-1-oxobutan-2-yl)succinamide]	1300 (≈ 985 mg/mL)	600 (≈ 455 mg/mL)			
CC(C)[C@H](NC(=S)NCCN1CCN(CCOCCN2C(=O)C=CC2=O)CC1)C(=O)N[C@@H](CCCNC(N)=O)C(=O)Nc1ccc(CO)cc1 [Mal-O-PIP-ThioU-ValCitPAB-OH, (S)-2-((S)-2-(3-(2-(4-(2-(2-(2,5-Dioxo-2,5-dihydro-1H-pyrrol-1-yl)ethoxy)ethyl)piperazin-1-yl)ethyl)thioureido)-3-methylbutanamido)-N-(4-(hydroxymethyl)phenyl)-5-ureidopentanamide]	1400 (≈ 1010 mg/mL)	600 (≈ 431 mg/mL)			
CC(C)[C@H](NC(=O)CCN1CCN(CCOCCN2C(=O)C=CC2=O)CC1)C(=O)N[C@@H](CCCNC(N)=O)C(=O)Nc1ccc(CO)cc1 [Mal-O-PIP-ValCitPAB-OH, (S)-2-((S)-2-(3-(4-(2-(2-(2,5-Dioxo-2,5-dihydro-1H-pyrrol-1-yl)ethoxy)ethyl)piperazin-1-yl)propanamido)-3-methylbutanamido)-N-(4-(hydroxymethyl)phenyl)-5-ureidopentanamide]	1500 (≈ 1030 mg/mL)	700 (≈ 481 mg/mL)			
CC(C)C(NC(=O)CCOCCOCCOCCOCCN1C(=O)C=CC1=O)C(=O)NC(CCCNC(N)=O)C(=O)Nc1ccc(CO)cc1 (stereo not shown) [Mal-PEG4-ValCitPAB-OH, reference compound]	40 (≈ 28.3 mg/mL)	20 (≈ 14.1 mg/mL)			solubility, conc. ([1]; 0.9% NaCl): 35 mM (≈ 24.7 mg/mL); solubility, conc. ([1]; 5% glucose): 24 mM (≈ 17 mg/mL)
CC(=O)[O][Pt]12([O]C(=O)NCCOCCOCCOCCOCCN3C(=O)C=CC3=O)([NH][C@@H]3CCCC[C@H]3[NH]1)[O]C(=O)C(=O)[O]2 [Ox-OAc-PEG4-Mal, (OC-6–34)-Acetato-[(1R,2R)-1,2-cyclohexanediamino][(14-(2,5-dioxo-2,5-dihydro-1H-pyrrol-1-yl)-3,6,9,12-tetraoxatetradecyl)carbamato]oxalatoplatinum(IV)]			~90	~60	intact maleimide / intact complex remaining after 5 h incubation [2]: ~70%; time the formed platinum(IV)-albumin conjugate remained stable (albumin; FCS, pH 7.4, 37 °C): over 25 h; remaining parental complex not bound to albumin (tR > 5 min) (albumin; FCS, pH 7.4, 37 °C, after 1 h): 10%
CC(=O)[O][Pt]12([O]C(=O)NCCN3CCN(CCN4C(=O)C=CC4=O)CC3)([NH][C@@H]3CCCC[C@H]3[NH]1)[O]C(=O)C(=O)[O]2 [Ox-OAc-PIP-C2-Mal, (OC-6–34)-Acetato-[(1R,2R)-1,2-cyclohexanediamino][(2-(4-(2-(2,5-dioxo-2,5-dihydro-1H-pyrrol-1-yl)ethyl)piperazin-1-yl)ethyl)carbamato]oxalatoplatinum(IV)]				~60	signal of most likely already hydrolyzed maleimide compound in LMWF (tR 5.8 min) (albumin; FCS, pH 7.4, 37 °C): ~35%; course of albumin binding over time (albumin; FCS, pH 7.4, 37 °C, over 25 h): did not further increase over time
CC(=O)[O][Pt]12([O]C(=O)NCCN3CCN(CCCCCN4C(=O)C=CC4=O)CC3)([NH][C@@H]3CCCC[C@H]3[NH]1)[O]C(=O)C(=O)[O]2 [Ox-OAc-PIP-C5-Mal, (OC-6–34)-Acetato-[(1R,2R)-1,2-cyclohexanediamino][(2-(4-(5-(2,5-dioxo-2,5-dihydro-1H-pyrrol-1-yl)pentyl)piperazin-1-yl)ethyl)carbamato]oxalatoplatinum(IV)]			~95	69	
CC(=O)[O][Pt]12([O]C(=O)NCCN3CCN(CCOCCN4C(=O)C=CC4=O)CC3)([NH][C@@H]3CCCC[C@H]3[NH]1)[O]C(=O)C(=O)[O]2 [Ox-OAc-PIP-O-Mal, (OC-6–34)-Acetato-[(1R,2R)-1,2-cyclohexanediamino][(2-(4-(2-(2-(2,5-dioxo-2,5-dihydro-1H-pyrrol-1-yl)ethoxy)ethyl)piperazin-1-yl)ethyl)carbamato]oxalatoplatinum(IV)]			~95	75	
